#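 In this assay, cells in 96-well plates receive the compound at five concentrations for 48 hours. Endpoints are linearly interpolated between the surrounding concentrations. At the GI50, growth is halved.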 The source made the active and inactive calls. No stated cut-off is given here; in the data, active = GI50 up to about 1.1 µM and inactive = higher.
# Assays:
# Test in all cases: DTP human tumour cell line panel, 48 h
# A549 = system: A549
# SF-295 = system: SF-295
# HT-29 = system: HT-29
# HCT-116 = system: HCT-116
# 786-0 = system: 786-0
# UO-31 = system: UO-31
# RPMI-8226 = system: RPMI-8226
# SNB-78 = system: SNB-78
# NCI-H226 = system: NCI-H226
# SNB-19 = system: SNB-19
# COLO 205 = system: COLO 205
# OVCAR-8 = system: OVCAR-8
# LXFL 529 = system: LXFL 529
# DMS-273 = system: DMS-273
# OVCAR-3 = system: OVCAR-3
# ACHN = system: ACHN
# Malme-3M = system: Malme-3M
# DMS-114 = system: DMS-114
# SK-OV-3 = system: SK-OV-3
# M14 = system: M14
# SNB-75 = system: SNB-75
# SK-MEL-28 = system: SK-MEL-28
# UACC-257 = system: UACC-257
# K562 = system: K562
# HOP-92 = system: HOP-92
# NCI-H23 = system: NCI-H23
# MOLT-4 = system: MOLT-4
# HL-60 = system: HL-60
# XF498 = system: XF498
# CCRF-CEM = system: CCRF-CEM
# OVCAR-4 = system: OVCAR-4
# SN12C = system: SN12C
# U-251 = system: U-251
# HOP-18 = system: HOP-18
# SF-268 = system: SF-268
# EKVX = system: EKVX
# SK-MEL-2 = system: SK-MEL-2
# HCT-15 = system: HCT-15
# HOP-62 = system: HOP-62
# A498 = system: A498
# NCI-H460 = system: NCI-H460
# IGROV-1 = system: IGROV-1
# NCI-H522 = system: NCI-H522
# SW-620 = system: SW-620
# KM-20L2 = system: KM-20L2
# KM12 = system: KM12
# TK-10 = system: TK-10
# CAKI-1 = system: CAKI-1
# HCC 2998 = system: HCC 2998
# SR = system: SR
# SK-MEL-5 = system: SK-MEL-5
# RXF 393 = system: RXF 393
# SF-539 = system: SF-539
# OVCAR-5 = system: OVCAR-5
# UACC-62 = system: UACC-62
# M19-MEL = system: M19-MEL
# DLD-1 = system: DLD-1
# LOX IMVI = system: LOX IMVI
compound,measurement,setting,value
c1ccc(-c2nc3ccccc3nc2SCc2cccnc2)cc1,GI50,A549,> 100 µM (inactive)
same,GI50,SF-295,> 100 µM (inactive)
same,GI50,HT-29,> 100 µM (inactive)
same,GI50,HCT-116,> 100 µM (inactive)
same,GI50,786-0,> 100 µM (inactive)
same,GI50,UO-31,56.6 µM (inactive)
same,GI50,RPMI-8226,> 100 µM (inactive)
same,GI50,SNB-78,> 100 µM (inactive)
same,GI50,NCI-H226,> 100 µM (inactive)
same,GI50,SNB-19,> 100 µM (inactive)
same,GI50,COLO 205,> 100 µM (inactive)
same,GI50,OVCAR-8,> 100 µM (inactive)
same,GI50,LXFL 529,> 100 µM (inactive)
same,GI50,DMS-273,> 100 µM (inactive)
same,GI50,OVCAR-3,> 100 µM (inactive)
same,GI50,ACHN,> 100 µM (inactive)
same,GI50,Malme-3M,> 100 µM (inactive)
same,GI50,DMS-114,> 100 µM (inactive)
same,GI50,SK-OV-3,> 100 µM (inactive)
same,GI50,M14,> 100 µM (inactive)
same,GI50,SNB-75,> 100 µM (inactive)
same,GI50,SK-MEL-28,> 100 µM (inactive)
same,GI50,UACC-257,> 100 µM (inactive)
same,GI50,K562,> 100 µM (inactive)
same,GI50,HOP-92,> 100 µM (inactive)
same,GI50,NCI-H23,> 100 µM (inactive)
same,GI50,MOLT-4,> 100 µM (inactive)
same,GI50,HL-60,> 100 µM (inactive)
same,GI50,XF498,> 100 µM (inactive)
same,GI50,CCRF-CEM,> 100 µM (inactive)
same,GI50,OVCAR-4,> 100 µM (inactive)
same,GI50,SN12C,> 100 µM (inactive)
same,GI50,U-251,> 100 µM (inactive)
same,GI50,HOP-18,14.4 µM (inactive)
same,GI50,SF-268,> 100 µM (inactive)
same,GI50,EKVX,> 100 µM (inactive)
COC(=O)CCC(=O)N1CC1C (stereo not given),GI50,SK-MEL-2,> 100 µM (inactive)
same,GI50,HCT-15,> 100 µM
same,GI50,HOP-62,> 100 µM (inactive)
same,GI50,A498,> 100 µM (inactive)
same,GI50,A549,> 100 µM (inactive)
same,GI50,NCI-H460,> 100 µM (inactive)
same,GI50,IGROV-1,> 100 µM (inactive)
same,GI50,SF-295,> 100 µM (inactive)
same,GI50,HT-29,> 100 µM (inactive)
same,GI50,NCI-H522,> 100 µM (inactive)
same,GI50,HCT-116,> 100 µM (inactive)
same,GI50,SW-620,> 100 µM (inactive)
same,GI50,786-0,> 100 µM (inactive)
same,GI50,KM-20L2,> 100 µM (inactive)
same,GI50,UO-31,> 100 µM (inactive)
same,GI50,RPMI-8226,> 100 µM (inactive)
same,GI50,KM12,> 100 µM (inactive)
same,GI50,NCI-H226,> 100 µM (inactive)
same,GI50,TK-10,> 100 µM (inactive)
same,GI50,SNB-19,> 100 µM (inactive)
same,GI50,COLO 205,> 100 µM (inactive)
same,GI50,CAKI-1,> 100 µM (inactive)
same,GI50,OVCAR-8,> 100 µM (inactive)
same,GI50,LXFL 529,> 100 µM (inactive)
same,GI50,DMS-273,> 100 µM (inactive)
same,GI50,HCC 2998,> 100 µM (inactive)
same,GI50,OVCAR-3,> 100 µM (inactive)
same,GI50,SR,> 100 µM (inactive)
same,GI50,ACHN,> 100 µM (inactive)
same,GI50,SK-MEL-5,> 100 µM (inactive)
same,GI50,RXF 393,> 100 µM (inactive)
same,GI50,Malme-3M,> 100 µM (inactive)
same,GI50,DMS-114,> 100 µM (inactive)
same,GI50,SK-OV-3,> 100 µM (inactive)
same,GI50,M14,> 100 µM (inactive)
same,GI50,SF-539,> 100 µM (inactive)
same,GI50,SNB-75,> 100 µM (inactive)
same,GI50,SK-MEL-28,> 100 µM (inactive)
same,GI50,UACC-257,> 100 µM (inactive)
same,GI50,K562,> 100 µM (inactive)
same,GI50,HOP-92,> 100 µM (inactive)
same,GI50,OVCAR-5,> 100 µM (inactive)
same,GI50,NCI-H23,> 100 µM (inactive)
same,GI50,MOLT-4,> 100 µM (inactive)
same,GI50,HL-60,> 100 µM (inactive)
same,GI50,XF498,> 100 µM (inactive)
same,GI50,CCRF-CEM,> 100 µM (inactive)
same,GI50,OVCAR-4,> 100 µM (inactive)
same,GI50,SN12C,> 100 µM (inactive)
same,GI50,UACC-62,> 100 µM (inactive)
same,GI50,U-251,> 100 µM (inactive)
same,GI50,HOP-18,> 100 µM (inactive)
same,GI50,M19-MEL,> 100 µM (inactive)
same,GI50,DLD-1,> 100 µM (inactive)
same,GI50,SF-268,> 100 µM (inactive)
same,GI50,EKVX,> 100 µM (inactive)
same,GI50,LOX IMVI,> 100 µM (inactive)
CN(C)CCCNC(=O)N/N=C/c1cccc([N+](=O)[O-])c1,GI50,SK-MEL-2,> 100 µM (inactive)
same,GI50,HCT-15,> 100 µM
same,GI50,A549,> 100 µM (inactive)
same,GI50,NCI-H460,> 100 µM (inactive)
same,GI50,IGROV-1,> 100 µM (inactive)
same,GI50,SF-295,> 100 µM (inactive)
same,GI50,HT-29,> 100 µM (inactive)
same,GI50,NCI-H522,> 100 µM (inactive)
same,GI50,HCT-116,> 100 µM (inactive)
same,GI50,SW-620,> 100 µM (inactive)
same,GI50,786-0,> 100 µM (inactive)
same,GI50,SNB-78,> 100 µM (inactive)
same,GI50,KM12,> 100 µM (inactive)
same,GI50,NCI-H226,> 100 µM (inactive)
same,GI50,TK-10,> 100 µM (inactive)
same,GI50,SNB-19,> 100 µM (inactive)
same,GI50,OVCAR-8,> 100 µM (inactive)
same,GI50,LXFL 529,> 100 µM (inactive)
same,GI50,DMS-273,> 100 µM (inactive)
same,GI50,OVCAR-3,> 100 µM (inactive)
same,GI50,ACHN,> 100 µM (inactive)
same,GI50,SK-MEL-5,> 100 µM (inactive)
same,GI50,RXF 393,> 100 µM (inactive)
same,GI50,Malme-3M,> 100 µM (inactive)
same,GI50,DMS-114,> 100 µM (inactive)
same,GI50,SK-OV-3,> 100 µM (inactive)
same,GI50,M14,> 100 µM (inactive)
same,GI50,SF-539,> 100 µM (inactive)
same,GI50,SNB-75,44 µM (inactive)
same,GI50,SK-MEL-28,> 100 µM (inactive)
same,GI50,UACC-257,> 100 µM (inactive)
same,GI50,K562,> 100 µM (inactive)
same,GI50,NCI-H23,> 100 µM (inactive)
same,GI50,MOLT-4,> 100 µM (inactive)
same,GI50,XF498,5.93 µM (inactive)
same,GI50,CCRF-CEM,> 100 µM (inactive)
same,GI50,OVCAR-4,> 100 µM (inactive)
same,GI50,SN12C,> 100 µM (inactive)
same,GI50,UACC-62,> 100 µM (inactive)
same,GI50,U-251,> 100 µM (inactive)
same,GI50,HOP-18,> 100 µM (inactive)
same,GI50,DLD-1,> 100 µM (inactive)
same,GI50,SF-268,> 100 µM (inactive)
same,GI50,LOX IMVI,> 100 µM (inactive)
Cc1ccc(C2=C(c3ccccc3)C(=O)C(c3ccccc3)=C2c2ccc(C)cc2)cc1,GI50,SK-MEL-2,6.79 µM (inactive)
same,GI50,HCT-15,32.4 µM
same,GI50,HOP-62,> 100 µM (inactive)
same,GI50,A498,> 100 µM (inactive)
same,GI50,A549,43.7 µM (inactive)
same,GI50,NCI-H460,36.1 µM (inactive)
same,GI50,IGROV-1,> 100 µM (inactive)
same,GI50,SF-295,18.4 µM (inactive)
same,GI50,HT-29,33.5 µM (inactive)
same,GI50,NCI-H522,72.9 µM (inactive)
same,GI50,HCT-116,31.4 µM (inactive)
same,GI50,SW-620,37.9 µM (inactive)
same,GI50,786-0,34.8 µM (inactive)
same,GI50,KM-20L2,45.8 µM (inactive)
same,GI50,UO-31,> 100 µM (inactive)
same,GI50,RPMI-8226,29.1 µM (inactive)
same,GI50,SNB-78,31.6 µM (inactive)
same,GI50,KM12,36.5 µM (inactive)
same,GI50,NCI-H226,65.5 µM (inactive)
same,GI50,TK-10,45.6 µM (inactive)
same,GI50,SNB-19,54.3 µM (inactive)
same,GI50,OVCAR-8,73.6 µM (inactive)
same,GI50,LXFL 529,68.7 µM (inactive)
same,GI50,HCC 2998,> 100 µM (inactive)
same,GI50,SR,58.5 µM (inactive)
same,GI50,ACHN,32.3 µM (inactive)
same,GI50,SK-MEL-5,55.1 µM (inactive)
same,GI50,RXF 393,26.4 µM (inactive)
same,GI50,Malme-3M,31 µM (inactive)
same,GI50,SK-OV-3,> 100 µM (inactive)
same,GI50,M14,> 100 µM (inactive)
same,GI50,SF-539,18.3 µM (inactive)
same,GI50,SNB-75,87.3 µM (inactive)
same,GI50,SK-MEL-28,21.9 µM (inactive)
same,GI50,UACC-257,39.4 µM (inactive)
same,GI50,K562,22.1 µM (inactive)
same,GI50,OVCAR-5,> 100 µM (inactive)
same,GI50,NCI-H23,31.1 µM (inactive)
same,GI50,MOLT-4,14.5 µM (inactive)
same,GI50,XF498,35.3 µM (inactive)
same,GI50,CCRF-CEM,17.2 µM (inactive)
same,GI50,SN12C,66.5 µM (inactive)
same,GI50,U-251,25.1 µM (inactive)
same,GI50,HOP-18,> 100 µM (inactive)
same,GI50,M19-MEL,41.1 µM (inactive)
same,GI50,DLD-1,41.2 µM (inactive)
same,GI50,SF-268,32.1 µM (inactive)
same,GI50,EKVX,38 µM (inactive)
